Test results: patent publication US12569470B2, “Vasodilator and use thereof” (Bioradical Research Institute Corp., priority 2019, dated 2026)

What was measured:
[1] = system: rat auricular subcutaneous blood vessel; assay: Vasodilation in vivo, blood vessel diameter after intravenous administration
Description: Eight-week-old or older female rats (Wistar, body weight: approximately 200 g, n=1) were anesthetized by subcutaneous administration of urethane so as to be […] body weight. The hair of the auricles of the rats was then removed and the rats were fixed on a fixing table. After the fixing, the fixing table was placed under a microscope (Nikon OPTIphoto, produced by Nikon Corporation). In addition, a catheter was placed in the groin vein of the rat.
BisEP-C3 was dissolved in a saline solution to achieve a concentration of 3 mg/ml. The resulting saline solution containing BisEP-C3 was administered intravenously via the catheter so as to be 3 mg/kg body weight. Then, the hemodynamic course of the rat auricular subcutaneous blood vessel was photographed and recorded using a microscope at a predetermined period (30, 60, 120 or 180 minutes) before and after the administration.
The obtained images were classified into three blood vessel thicknesses (thick: 35-45 μm, medium: 15-20 μm, thin: 7-9 μm) based on the diameter of the blood vessel before administration. […] Further, for each selected site, the relative blood vessel diameter was calculated after the measurement of the blood vessel diameter, with the blood vessel diameter before administration being a reference (1). […] As a control, the blood vessel diameter was calculated in the same manner except that the saline solution was administered.

[2] = system: blood vessel of the mesentery; assay: LPS-induced vascular disorder of the mesentery, bleeding and leukocyte rolling; format: in vivo, rat
Description: Eight-week-old or older female rats (Wistar, body weight: approximately 200 g, n=1) were anesthetized by subcutaneous administration of urethane (1.75 g/kg body weight). The rats were then opened and fixed on a fixing table in such a manner that the mesentery of the rats was observable. After the fixing, the fixing table was placed under a microscope (Nikon OPTIphoto, produced by Nikon Corporation) so that the mesentery could be observed. In addition, a catheter was placed in the groin vein of the rat.
1μg/ml of lipopolysaccharide (LPS) (produced by Sigma-Aldrich Co., Ltd.) derived from Pseudomonas aeruginosa (ATCC27316) was added dropwise once (20 μl, 20 ng/sight) and allowed to stand for 30 minutes. Next, a saline solution containing BisEP-C3 prepared in the same manner as in Example 9 was rapidly administered intravenously via the catheter so as to be 1 mg/kg body weight. After the intravenous administration, the saline solution was administered continuously so as to be 1 mg/kg body weight per hour (0.15 ml/hour). […] In the obtained photograph, the area of the region where bleeding occurred (bleeding area) was detected based on the number of pixels, and then the proportion of the area (bleeding area proportion) occupied per visual field was calculated. […]

[3] = NO-eliminating ability by ESR with NO donor NOC-7 and Carboxy-PTIO
Description: It was examined whether the vasodilator of the present invention has NO-eliminating ability. Specifically, as to the NO generation reaction, NOC-7 of NO donor was used to examine whether the NO concentration is reduced in the presence of BisEP-C3. First, 20 μl of a BisEp-C3 solution was added to 140 μl of a phosphate buffer solution (pH 7.4) having a concentration of […] so as to achieve a predetermined concentration (0, 25, 50, 100, 200, 400, or 600 μmol/1), and further 20 μl of a spin-trapping agent (100 μmol/1), Carboxy-PTIO(2-(4-Carboxyphenyl)-4, 4, 5, 5-tetramethylimidazoline-1-oxyl-3-oxide, sodium salt, final concentration 10 μmol/1) solution and 20 μl of a NO donor solution (10 mmol/1NOC-7 (1-Hydroxy-2-oxo-3-(N-methyl-3-aminopropyl)-3-methyl-1-triazene, final concentration […])) were added and mixed. The NO donor solution was prepared using a sodium hydroxide solution having a concentration of 0.1 mmol/1. Then, after the mixing, the mixture was incubated at room temperature for 3 minutes, and the obtained reaction solution was measured under the following ESR measurement conditions 2. Then, the proportion of the decrease in the signal intensity was calculated as the NO-eliminating ability with the signal intensity of the sample with no BisEP-C3 (0 μmol/1) being 100%.
ESR Measurement Conditions 2 […]

## CCN1N=C(C)/C(=C\C=C\c2c(C)nn(CC)c2O)C1=O [BisEp-C3, 2,4-dihydro-4-[3-(1-ethyl-5-hydroxy-3-methyl-1H-pyrazol-4-yl)-2-propen-1-ylidene]-2-ethyl-5-methyl-3H-pyrazol-3-one]
[1]; 3 mg/kg body weight intravenously, 30, 60, 120 or 180 minutes, versus saline control, FIG. 10
  relative value of the blood vessel diameter: dilated at any time after administration as compared to the control
[1]; thick 35-45 μm, medium 15-20 μm, thin 7-9 μm, 3 mg/kg intravenously
  severity of dilatation by blood vessel size: remarkably observed in the smaller blood vessels
[2]; LPS instillation, 1 mg/kg intravenously then 1 mg/kg per hour, up to 180 minutes, FIGS. 12 and 13
  bleeding area and bleeding area proportion: no bleeding was observed
[2]; after LPS instillation, compared to the control
  rolling phenomena of leukocytes: a large number of rolling phenomena of leukocytes were observed
[3]; 0, 25, 50, 100, 200, 400, or 600 μmol/1, 3 minutes at room temperature, FIG. 14
  NO-eliminating ability: eliminated NO in a concentration-dependent manner
[3]; equal concentration, comparison with the superoxide test
  superoxide decrease compared with NO-eliminating ability: the proportion of the decrease in the production amount of superoxide is larger than the NO-eliminating ability
